Columns and labels:
Rab10 pThr73 [1] = test: Rab10 Thr73 dephosphorylation (immunoblot) in LRRK2^G2019S MEFs; type: cell-based; settings: Mus musculus, read-out: pRab10 inhibited in LRRK2^G2019S MEFs
Procedure: (§1) The second-generation PROTACs were tested in parallel with the first generation PROTACs SD75, SD82, and SD100. The compounds were tested at 33 nM or […] concentrations for 4 hours or 24 hours, running two biological replicates per condition and achieving quantifications representative of both replicates. Analysis by quantitative immunoblotting was performed with readouts of the total LRRK2 (antibody recognizes epitope in C-terminus of protein), Rab10 pThr73 (physiological substrate) and LRRK2 pSer935 (biomarker phosphorylation site).
(§2) Primary MEFs were generated as described in a previous study (Wiggin et al., Mol. Cell Biol. 2002 April; 22(8):2871-81.). Briefly, the uterine horn was collected from adult female mice at day E12.5 and transferred to a 10 cm tissue culture dish containing cold PBS. Two forceps were used to tear the yolk sacs to isolate each embryo. Forceps were cleaned thoroughly with 70% ethanol between each embryo isolation. The embryos were culled, and a tissue piece was collected in a PCR tube for genotyping. The red tissue of the embryo, which grows to become the heart and liver, was removed. The remainder of the embryo was minced with a scalpel blade and incubated with 7.5 ml trypsin-EDTA solution for 10 minutes in a 37° C. tissue culture CO2 incubator. The dish was removed from the incubator and checked under a light microscope for single cells. 7.5 ml complete media was added to the trypsinised cells, and the cell suspension was transferred to a 15 ml Falcon tube, centrifuged at 1200 rpm for 5 minutes at room temperature. The trypsin was aspirated, the cell pellet was resuspended in 5 ml fresh complete media, and the cell suspension was plated in a 60 mm tissue culture dish and incubated in a 37° C., 5% CO2 tissue culture incubator. The MEFs at this stage were considered as passage 0 and were passaged and expanded for experimental use once the genotype was confirmed by allelic sequencing and immunoblotting. MEFs were cultured in Dulbecco's modified Eagle medium (DMEM) containing 10% (v/v) fetal bovine serum (FBS), 2 mM L-glutamine, 100 U/ml penicillin, and 100 μg/ml streptomycin supplemented with 1× non-essential amino acids and 1 mM sodium pyruvate.
Culturing and passaging of adherent cell lines were carried out using aseptic technique in CL1 or CL2 (for PBMC isolation) biological safety cabinets. All cells were incubated in a 37° C. incubator with 5% CO2. Cell lines were regularly tested for mycoplasma contamination. For western blot assay, the cells were seeded in 6-well plates. […] The cells were immediately placed on ice and were scraped and collected into 1.5 ml Eppendorf tubes. Cell lysates were incubated on ice for 10 minutes prior to centrifugation at 15,000 g at 4° C. for 15 minutes. The cell pellet was discarded, and supernatant was collected for analysis by quantitative immunoblotting. For long term storage, the supernatant was flash frozen and stored at −80° C. Protein concentrations of cell lysates were determined using the Bradford assay.
Cell lysates containing a quarter of a volume of 4× NuPAGE LDS sample buffer (NP0007) supplemented with 5% β-mercaptoethanol, were heated at 95° C. for 5 minutes. 15 to 20 μg of samples were loaded onto pre-cast 4-12% Bis-Tris midi 20W or 26W gels (Thermofisher Scientific®, Cat #WG1402BOX or WG1403BOX) and resolved at 130 V for 2 hours with NuPAGE MOPS SDS running buffer (Thermofisher Scientific® Cat #NP0001-02). Proteins were electrophoretically transferred onto a 0.45 μm nitrocellulose membrane (GE Healthcare, Amersham Protran® Supported 0.45 mm NC) at 90 V for 90 min on ice in transfer buffer (48 mM Tris base and 39 mM glycine supplemented with 20% methanol). The transferred membrane was blocked with 5% (w/v) skim milk powder dissolved in tris-buffered saline with tween (TBS-T) (50 mM Tris base, 150 mM sodium chloride (NaCl), 0.1% (v/v) Tween-20) at room temperature for 1 hour.

Rab10 pThr73 [2] = test: Rab10 Thr73 dephosphorylation (immunoblot) in WT MEFs; type: cell-based, mouse; settings: Mus musculus, read-out: pRab10 inhibited in WT MEFs
Procedure: as §1, with “Western blot degradation assays for the LRRK2 protacs were performed with WT and PD-associated LRRK2 [G2019S] mouse embryonic fibroblasts (MEFs). The second-generation” for “The second-generation”
as §2
Culturing and passaging of adherent cell lines were carried out using aseptic technique in CL1 or CL2 (for PBMC isolation) biological safety cabinets. All cells were incubated in a 37° C. incubator with 5% CO2. Cell lines were regularly tested for mycoplasma contamination. For western blot assay, the cells were seeded in 6-well plates. After treating with testing compounds at indicated concentrations and time period, the media was removed and the cells were washed with PBS and lysed in 100 μl ice-cold complete lysis buffer containing 50 mM Tris-HCl pH 7.4, 1 mM EGTA, 10 mM 2-glycerophosphate, 50 mM sodium fluoride, 5 mM sodium pyrophosphate, 270 mM sucrose, supplemented with 1 μg/ml microcystin-LR, 1 mM sodium orthovanadate, complete EDTA-free protease inhibitor cocktail (Roche) and 1% (v/v) Triton X-100. The cells were immediately placed on ice and were scraped and collected into 1.5 ml Eppendorf tubes. Cell lysates were incubated on ice for 10 minutes prior to centrifugation at 15,000 g at 4° C. for 15 minutes. The cell pellet was discarded, and supernatant was collected for analysis by quantitative immunoblotting. For long term storage, the supernatant was flash frozen and stored at −80° C. Protein concentrations of cell lysates were determined using the Bradford assay.
Cell lysates containing a quarter of a volume of 4× NuPAGE LDS sample buffer (NP0007) supplemented with 5% β-mercaptoethanol, were heated at 95° C. for 5 minutes. […]

Rab10 pThr73 [3] = test: Rab10 Thr73 dephosphorylation (immunoblot) in LRRK2^G2019S MEFs; type: cell-based, mouse; settings: Mus musculus, read-out: pRab10 inhibited in LRRK2^G2019S MEFs

SMILES	inhibition at 0.033 µM (Rab10 pThr73 [1]; 33 nM/4 h treatment)	inhibition at 0.033 µM (Rab10 pThr73 [1]; 33 nM/24 h treatment)	inhibition at 0.033 µM (Rab10 pThr73 [2]; 33 nM/4 h treatment)	inhibition at 0.033 µM (Rab10 pThr73 [2]; 33 nM/24 h treatment)	inhibition at 1 µM (Rab10 pThr73 [2]; 1 μM/4 h treatment)	inhibition at 1 µM (Rab10 pThr73 [2]; 1 μM/24 h treatment)	inhibition at 1 µM (Rab10 pThr73 [3]; 1 μM/4 h treatment)	inhibition at 1 µM (Rab10 pThr73 [3]; 1 μM/24 h treatment)
CNc1nc(Nc2ccc(C(=O)N3CCN(CCOCCOCCN4CCN(c5ccc6c(c5)C(=O)N(C5CCC(=O)NC5=O)C6=O)CC4)CC3)cc2OC)ncc1Cl (stereo not shown) [SD10, 5-(4-(2-(2-(2-(4-(4-((5-chloro-4-(methylamino)pyrimidin-2-yl)amino)-3-methoxybenzoyl)piperazin-1-yl)ethoxy)ethoxy)ethyl)piperazin-1-yl)-2-(2,6-dioxopiperidin-3-yl)isoindoline-1,3-dione]	0 to 60%	0 to 70%	0 to 25%	10 to 40%	18 to 90%	30 to 90%	30 to 95%	30 to 100%
CNc1nc(Nc2ccc(OCCOCCCSC(C)(C)[C@@H](NC(=O)C3(F)CC3)C(=O)N3C[C@H](O)C[C@H]3C(=O)NCc3ccc(-c4scnc4C)cc3)cc2OC)ncc1Cl [XL01149, (2S,4R)-1-((S)-3-((3-(2-(4-((5-chloro-4-(methylamino)pyrimidin-2-yl)amino)-3-methoxyphenoxy)ethoxy)propyl)thio)-2-(1-fluorocyclopropane-1-carboxamido)-3-methylbutanoyl)-4-hydroxy-N-(4-(4-methylthiazol-5-yl)benzyl)pyrrolidine-2-carboxamide]	0 to 70%	0 to 90%	0 to 40%	0 to 60%	10 to 95%	30 to 100%	20 to 100%	10 to 100%
CNc1nc(Nc2ccc(C(=O)N3CCN(CCOCCOCCSC(C)(C)[C@H](NC(=O)C4(F)CC4)C(=O)N4C[C@H](O)C[C@H]4C(=O)NCc4ccc(-c5scnc5C)c(F)c4)CC3)cc2OC)ncc1Cl [XL01123, (2S,4R)-1-((R)-3-((2-(2-(2-(4-(4-f((5-chloro-4-(methylamino)pyrimidin-2-yl)amino)-3-methoxybenzoyl)piperazin-1-yl)ethoxyl)ethoxy)ethyl)thio)-2-(1-fluorocyclopropane-1-carboxamido)-3-methylbutanoyl)-N-(3-fluoro-4-(4-methylthiazol-5-yl)benzyl)-4-hydroxypyrrolidine-2-carboxamide]	0 to 70%	0 to 90%	0 to 40%	0 to 60%	10 to 95%	30 to 100%	20 to 100%	10 to 100%
CNc1nc(Nc2ccc(C(=O)N3CCN(CC4CC[C@H](CSC(C)(C)C(NC(=O)C5(F)CC5)C(=O)N5C[C@H](O)C[C@H]5C(=O)NCc5ccc(-c6scnc6C)cc5)C4)CC3)cc2OC)ncc1Cl (stereo in doubt) [XL02093, (2S,4R)-1-((S)-3-((((1S,3S)-3-((4-(4-((5-chloro-4-(methylamino)pyrimidin-2-yl)amino)-3-methoxybenzoyl)piperazin-1-yl)methyl)cyclopentyl)methyl)thio)-2-(1-fluorocyclopropane-1-carboxamido)-3-methylbutanoyl)-4-hydroxy-N-(4-(4-methylthiazol-5-yl)benzyl)pyrrolidine-2-carboxamide]	20 to 50%		20 to 40%		75 to 90%		80 to 100%	
CNc1nc(Nc2ccc(C(=O)N3CCN(C[C@H]4CC[C@@H](CSC(C)(C)[C@H](NC(=O)C5(F)CC5)C(=O)N5C[C@H](O)CC5C(=O)NCc5ccc(-c6scnc6C)cc5F)CC4)CC3)cc2OC)ncc1Cl (stereo partly drawn) [XL02058, (2S,4R)-1-((R)-3-((((1s,4S)-4-((4-(4-((5-chloro-4-(methylamino)pyrimidin-2-yl)amino)-3-methoxybenzoyl)piperazin-1-yl)methyl)cyclohexyl)methyl)thio)-2-(1-fluorocyclopropane-1-carboxamido)-3-methylbutanoyl)-N-(2-fluoro-4-(4-methylthiazol-5-yl)benzyl)-4-hydroxypyrrolidine-2-carboxamide]	0 to 90%	30 to 90%	0 to 70%	0 to 80%	80 to 100%	80 to 100%	10 to 100%	80 to 100%
CNc1nc(Nc2ccc(C(=O)N3CCN(CCCOc4cc(-c5scnc5C)ccc4CNC(=O)[C@@H]4C[C@@H](O)CN4C(=O)[C@@H](NC(=O)C4(F)CC4)C(C)(C)C)CC3)cc2OC)ncc1Cl [SD13, (2S,4R)—N-(2-(3-(4-(4-((5-chloro-4-(methylamino)pyrimidin-2-yl)amino)-3-methoxybenzoyl)piperazin-1-yl)propoxy)-4-(4-methylthiazol-5-yl)benzyl)-1-((S)-2-(1-fluorocyclopropane-1-carboxamido)-3,3-dimethylbutanoyl)-4-hydroxypyrrolidine-2-carboxamide]	0 to 60%	0 to 70%	0 to 25%	10 to 40%	18 to 90%	30 to 90%	30 to 95%	30 to 100%
CNc1nc(Nc2ccc(C(=O)N3CCN(CCCN4CCN(c5ccc6c(c5)C(=O)N(C5CCC(=O)NC5=O)C6=O)CC4)CC3)cc2OC)ncc1Cl (stereo not shown) [SD11, 5-(4-(3-(4-(4-((5-chloro-4-(methylamino)pyrimidin-2-yl)amino)-3-methoxybenzoyl)piperazin-1-yl)propyl)piperazin-1-yl)-2-(2,6-dioxopiperidin-3-yl)isoindoline-1,3-dione]	0 to 60%	0 to 70%	0 to 25%	10 to 40%	18 to 90%	30 to 90%	30 to 95%	30 to 100%

Reference: US20260001875A1, “AMINOPYRIMIDINYL DERIVATIVES FOR THE TREATMENT OF PARKINSON'S DISEASE” (UNIVERSITY OF DUNDEE, priority 2022, published 2026)
